Here are results for 14 compounds from patent US20260125346A1, “Isoquinolinone Derivatives and 4H-Quinolizinone Derivatives and Pharmaceutical Compositions Thereof for the Treatment of Disease” (BeOne Medicines I GmbH, priority 2023, published 2026).

Assay [1] has as its target PI3Kα (p110/p85) kinase (wild type, "WT") (Homo sapiens, UniProt P42336). The experiment in a line: PI3Kα (p110/p85) kinase ADP-Glo Assay. The format is biochemical. The conditions noted are these: 25 uM ATP. Put shortly:
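Wild-type PI3Kα p110/p85 preincubated 30 min at RT with PI(4,5)P2:PS substrate ([…]) and compound ([…]) in HEPES pH7.5 buffer with MgCl2, DTT and BSA; reaction started with 25 µM ATP for 120 min at RT. ADP measured by ADP-Glo luminescence; IC50 from four-parameter logistic fit.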
On the technique in general: ADP-Glo first removes unused ATP, then detects ADP through luciferase.

Assay [2] concerns PI3Kα H1047R mutated cell line T-47D. The experiment in a line: Phospho-AKT (Ser473) Inhibition Assay (HTRF), T-47D. Type of assay: cell-based. As to conditions: for IC50: Homo sapiens, T47D, T-47D, 1 hour treatment, read-out: p-AKT Inhibition assay (S473) IC50 T-47D; for Selectivity: SK-BR-3/T-47D (p-AKT): p-AKT (S473) IC50 ratio. In short, it runs like this: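 Cells seeded overnight in insulin-supplemented MEM, then treated 1 h with 11-point 1:3 compound dilutions (10 μM to 0.1 nM final, 0.1% DMSO). Lysates assayed for phospho-AKT Ser473 by HTRF; IC50 from 4-parameter logistic fit, normalised to DMSO (max) and 10 μM GDC0077 (min).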
In general terms: TR-FRET usually uses a lanthanide donor and a delayed reading to cut background.

The subject of assay [3] is WT cell line SK-BR-3. The experiment in a line: Phospho-AKT (Ser473) Inhibition Assay (HTRF), SK-BR-3. The format is cell-based. As to conditions: Homo sapiens; SK-BR-3, 1 hour treatment; read-out: p-AKT Inhibition assay (S473) IC50 SK-BR-3. In short, it runs like this: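 SK-BR-3 (PI3Kα WT) cells seeded overnight in MEM with insulin, then treated 1 h with 11-point 1:3 dilutions (10 μM to 0.1 nM, 0.1% DMSO). Lysates read for phospho-AKT Ser473 by HTRF after 4 h antibody incubation at room temperature. IC50 from 4-parameter fit, % inhibition normalized to DMSO (max) and 10 μM GDC0077 (min).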

The subject of assay [4] is PI3Kα H1047R mutated cell line T-47D cells. The experiment in a line: Cell Proliferation Assay (CellTiter-Glo), T-47D. Type of assay: cell-based. The conditions noted are these: for IC50: Homo sapiens, T47D, 72 h, T-47D, 3 days treatment; for Selectivity: SK-BR-3/T-47D (cell proliferation): cell proliferation IC50 ratio. As to the method: Cell Culture Maintenance. The T-47D (ATCC, HTB-133) cell line was obtained from the American Type Culture Collection. Cells were maintained in RPMI1640 medium (Gibco, REF #22400105) supplemented with 10% Fetal Bovine Serum (Gibco, REF #10091148). Cultures were maintained in a humidified incubator at 37° C. under 5% CO2/95% air.
Cell Proliferation Assay. PI3Kα H1047R mutated cell line T-47D cells and WT cell line SK-BR-3 were seeded at a density of 3×10^3 cells per well in 96 well plate (Xinyou Biotechnology, 062096) in 95 μL of culture medium, overnight. Compounds dissolved in 10 mM stock solutions in DMSO were serially diluted 1:3 in DMSO to generate a 9-point dilution series and plated using an INTEGRA ASSIST Plus pipetting robot. A 20× intermediate compound dilution plate in RPMI1640 medium (200 M starting compound concentration in 2% DMSO) was then prepared. Five μL of intermediate serially diluted compounds were added to the cell plate to final concentrations ranging from […] to 1 nM in 0.1% DMSO. 0.1% DMSO alone was used to establish the maximum signal and medium without cells was for minimum signal. After 3 days treatment, equilibrated the plate and its contents at room temperature for approximately 30 minutes. Added 30 μL CellTiter-Glo® Reagent (Promega, REF #G7571) to each well. Then mixed contents for 5 min on plate shaker to induce cell lysis. Incubated at room temperature for 10 minutes to stabilize luminescent signal. The plates were read on PHERAstar FSX Microplate reader using standard luminescence settings.
Relative IC50 values were determined using luminescence units by calculating percent inhibition with respect to the in-plate “MIN” (medium only) and “MAX” (0.1% DMSO) controls. The data were analyzed using a 4-parameter nonlinear logistic equation (four-parameter logistic concentration-response curve): Y=bottom+[(top−bottom)/1+(X/IC50) slope] • where Y=% inhibition, X=concentration of inhibitor, bottom=minimum value of y attained by curve-fit, top=maximum value of y attained by curve-fit and slope=steepness of curve at the IC50.

Sequence of PI3Kα (p110/p85) kinase (wild type, "WT") (P42336 whole entry): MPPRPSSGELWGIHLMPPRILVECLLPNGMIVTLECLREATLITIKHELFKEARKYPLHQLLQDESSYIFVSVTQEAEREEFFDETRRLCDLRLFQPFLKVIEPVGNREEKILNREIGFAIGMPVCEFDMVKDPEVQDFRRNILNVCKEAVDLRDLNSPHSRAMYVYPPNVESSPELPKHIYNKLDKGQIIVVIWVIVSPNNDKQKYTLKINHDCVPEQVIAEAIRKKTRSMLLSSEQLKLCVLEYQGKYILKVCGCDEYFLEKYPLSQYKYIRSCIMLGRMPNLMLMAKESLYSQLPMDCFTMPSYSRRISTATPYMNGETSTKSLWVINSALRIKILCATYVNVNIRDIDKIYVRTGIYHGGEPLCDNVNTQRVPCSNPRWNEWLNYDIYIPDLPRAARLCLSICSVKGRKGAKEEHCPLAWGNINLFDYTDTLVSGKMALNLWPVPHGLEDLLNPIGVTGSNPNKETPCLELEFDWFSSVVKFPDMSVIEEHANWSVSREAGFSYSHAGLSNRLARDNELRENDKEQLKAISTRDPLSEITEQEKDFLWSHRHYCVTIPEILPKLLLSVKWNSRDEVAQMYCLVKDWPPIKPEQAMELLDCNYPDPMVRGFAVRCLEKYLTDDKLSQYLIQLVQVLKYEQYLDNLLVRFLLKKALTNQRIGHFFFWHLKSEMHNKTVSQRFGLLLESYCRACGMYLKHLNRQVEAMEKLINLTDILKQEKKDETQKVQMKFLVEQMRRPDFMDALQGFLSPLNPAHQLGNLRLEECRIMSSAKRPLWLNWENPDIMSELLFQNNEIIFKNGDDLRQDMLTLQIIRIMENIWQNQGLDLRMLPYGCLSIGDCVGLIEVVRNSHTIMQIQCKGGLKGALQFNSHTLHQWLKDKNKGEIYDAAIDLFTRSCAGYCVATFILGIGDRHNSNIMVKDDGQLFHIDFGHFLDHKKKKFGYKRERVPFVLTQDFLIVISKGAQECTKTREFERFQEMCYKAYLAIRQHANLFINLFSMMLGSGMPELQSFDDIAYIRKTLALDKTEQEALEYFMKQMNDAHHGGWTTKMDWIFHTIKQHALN
Sequence of PI3Kα (p110/p85) kinase (wild type, "WT") (P27986 whole entry partner): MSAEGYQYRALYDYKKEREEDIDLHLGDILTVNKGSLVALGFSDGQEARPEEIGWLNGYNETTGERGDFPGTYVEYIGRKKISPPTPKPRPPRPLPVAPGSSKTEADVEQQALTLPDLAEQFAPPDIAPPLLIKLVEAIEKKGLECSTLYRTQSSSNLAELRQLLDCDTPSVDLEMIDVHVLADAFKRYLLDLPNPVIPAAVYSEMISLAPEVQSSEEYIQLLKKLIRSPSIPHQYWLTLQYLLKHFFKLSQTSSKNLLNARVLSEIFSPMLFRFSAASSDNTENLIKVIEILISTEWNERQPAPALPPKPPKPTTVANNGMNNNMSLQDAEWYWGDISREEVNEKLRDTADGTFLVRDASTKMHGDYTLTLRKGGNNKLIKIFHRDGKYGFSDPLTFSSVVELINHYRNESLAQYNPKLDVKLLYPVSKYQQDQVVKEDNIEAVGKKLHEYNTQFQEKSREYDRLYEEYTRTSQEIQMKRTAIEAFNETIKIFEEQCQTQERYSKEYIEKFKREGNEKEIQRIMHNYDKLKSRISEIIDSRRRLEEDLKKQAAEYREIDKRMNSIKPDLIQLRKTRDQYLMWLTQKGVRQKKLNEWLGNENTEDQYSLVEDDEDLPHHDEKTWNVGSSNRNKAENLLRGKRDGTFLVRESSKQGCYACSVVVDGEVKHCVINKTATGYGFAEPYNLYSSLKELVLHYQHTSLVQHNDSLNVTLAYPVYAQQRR

Regarding `Cc1cc(C(C)Nc2ccccc2C(=O)O)c2cc(-c3cccc(F)c3F)n(C)c(=O)c2c1` (stereo not shown) [Example 12, 2-((1-(3-(2,3-difluorophenyl)-2,7-dimethyl-1-oxo-1,2-dihydroisoquinolin-5-yl)ethyl)amino)benzoic acid], the half-inhibitory concentration (IC50) worked out at 6690 nM in assay [1], 55.3 nM in assay [2], 2160 nM in assay [3] and 237 nM in assay [4]. The “Selectivity: SK-BR-3/T-47D (p-AKT)” value in assay [2] was found to be 39.0. In addition, the “Selectivity: SK-BR-3/T-47D (cell proliferation)” value in assay [4] is given as more than 42.

On to `COc1cccc(-c2cc3c(C(C)Nc4ccccc4C(=O)O)cc(C)cc3c(=O)n2C)c1` (stereo not shown) [Example 13, 2-((1-(3-(3-methoxyphenyl)-2,7-dimethyl-1-oxo-1,2-dihydroisoquinolin-5-yl)ethyl)amino)benzoic acid], for which the IC50 in assay [1] was found to be 5820 nM; in assay [2] it was 64 nM; in assay [3], 3590 nM; in assay [4], 233 nM. Further, the “Selectivity: SK-BR-3/T-47D (p-AKT)” value in assay [2] is 56.1. Also, in assay [4], the “Selectivity: SK-BR-3/T-47D (cell proliferation)” value is more than 43.

In the case of `COc1ccc(-c2cc3c(C(C)Nc4ccccc4C(=O)O)cc(C)cc3c(=O)n2C)cc1` (stereo not shown) [Example 14, 2-((1-(3-(4-methoxyphenyl)-2,7-dimethyl-1-oxo-1,2-dihydroisoquinolin-5-yl)ethyl)amino)benzoic acid], the IC50 amounted to 3720 nM in assay [1], 63.2 nM in assay [2], 2060 nM in assay [3] and 232 nM in assay [4]. In assay [2], the “Selectivity: SK-BR-3/T-47D (p-AKT)” value is given as 32.5. In addition, in assay [4], the “Selectivity: SK-BR-3/T-47D (cell proliferation)” value was more than 43.

For `COc1ccc(-c2cc3c(C(C)Nc4ccccc4C(=O)O)cc(C)cc3c(=O)n2C)cn1` (stereo not shown) [Example 15, 2-((1-(3-(6-methoxypyridin-3-yl)-2,7-dimethyl-1-oxo-1,2-dihydroisoquinolin-5-yl)ethyl)amino)benzoic acid], the IC50 came out at 6860 nM in assay [1], 217 nM in assay [2], 8360 nM in assay [3] and 112 nM in assay [4]. In addition, in assay [2], the “Selectivity: SK-BR-3/T-47D (p-AKT)” value is reported as 38.5. Moreover, the “Selectivity: SK-BR-3/T-47D (cell proliferation)” value in assay [4] is given as more than 89.

Turning to `Cc1cc(C(C)Nc2ccccc2C(=O)O)c2cc(-c3cnn(-c4ccc(C(N)=O)cn4)c3)n(C)c(=O)c2c1` (stereo not shown) [Example 16, 2-((1-(3-(1-(5-carbamoylpyridin-2-yl)-1H-pyrazol-4-yl)-2,7-dimethyl-1-oxo-1,2-dihydroisoquinolin-5-yl)ethyl)amino)benzoic acid], the IC50 in assay [1] was 3670 nM; in assay [2], 1580 nM; in assay [3], more than 10000 nM; in assay [4], 591 nM. The “Selectivity: SK-BR-3/T-47D (p-AKT)” value in assay [2] is on record as more than 6.3. In addition, the “Selectivity: SK-BR-3/T-47D (cell proliferation)” value in assay [4] is recorded as more than 17.

Regarding `Cc1cc(C(C)Nc2ccccc2C(=O)O)c2cc(-c3nc4ccccc4s3)n(C)c(=O)c2c1` (stereo not shown) [Example 17, 2-((1-(3-(benzo[d]thiazol-2-yl)-2,7-dimethyl-1-oxo-1,2-dihydroisoquinolin-5-yl)ethyl)amino)benzoic acid], the IC50 in assay [1] was 7780 nM; in assay [2], 58.8 nM; in assay [3], 795 nM; in assay [4] it was 746 nM. Also, the “Selectivity: SK-BR-3/T-47D (p-AKT)” value in assay [2] is 13.5. The “Selectivity: SK-BR-3/T-47D (cell proliferation)” value in assay [4] was more than 13.

In the case of `Cc1cc(C(C)Nc2ccccc2C(=O)O)c2cc(-c3ccc4nc(C)sc4c3)n(C)c(=O)c2c1` (stereo not shown) [Example 18, 2-((1-(2,7-dimethyl-3-(2-methylbenzo[d]thiazol-6-yl)-1-oxo-1,2-dihydroisoquinolin-5-yl)ethyl)amino)benzoic acid], the IC50 in assay [1] stood at 4370 nM; in assay [2] it was 85.1 nM; in assay [3] it was 2320 nM; in assay [4] it was 222 nM. Also, the “Selectivity: SK-BR-3/T-47D (p-AKT)” value in assay [2] is on record as 27.3. Further, the “Selectivity: SK-BR-3/T-47D (cell proliferation)” value in assay [4] was more than 45.

In the case of `Cc1cc(C(C)Nc2ccccc2C(=O)O)c2cc(-c3ccc4nn(C)cc4c3)n(C)c(=O)c2c1` (stereo not shown) [Example 19, 2-((1-(2,7-dimethyl-3-(2-methyl-2H-indazol-5-yl)-1-oxo-1,2-dihydroisoquinolin-5-yl)ethyl)amino)benzoic acid], the IC50 in assay [1] stood at 6560 nM; in assay [2], 166 nM; in assay [3], 2290 nM; in assay [4], 116 nM. The “Selectivity: SK-BR-3/T-47D (p-AKT)” value in assay [2] was found to be 13.8. Also, the “Selectivity: SK-BR-3/T-47D (cell proliferation)” value in assay [4] is reported as more than 86.

Regarding `CC(Nc1ccccc1C(=O)O)c1cccc2c(=O)n(C)c(-c3ccccc3)cc12` (stereo not shown) [Example 20, 2-((1-(2-methyl-1-oxo-3-phenyl-1,2-dihydroisoquinolin-5-yl)ethyl)amino)benzoic acid], the IC50 was 10100 nM in assay [1], 24.1 nM in assay [2], more than 10000 nM in assay [3] and 934 nM in assay [4]. In addition, in assay [2], the “Selectivity: SK-BR-3/T-47D (p-AKT)” value was more than 416. The “Selectivity: SK-BR-3/T-47D (cell proliferation)” value in assay [4] is on record as more than 10.7.

Take `CC(Nc1ccccc1C(=O)O)c1cccc2c(=O)n(C)c(C#Cc3ccccc3)cc12` (stereo not shown) [Example 21, 2-((1-(2-methyl-1-oxo-3-(phenylethynyl)-1,2-dihydroisoquinolin-5-yl)ethyl)amino)benzoic acid]: the concentration for half-maximal inhibition (IC50) in assay [1] amounted to 1340 nM; in assay [2], 35.5 nM; in assay [3], 5880 nM; in assay [4] it was 2540 nM. Besides, in assay [2], the “Selectivity: SK-BR-3/T-47D (p-AKT)” value was found to be 165.3. Further, in assay [4], the “Selectivity: SK-BR-3/T-47D (cell proliferation)” value is on record as more than 3.93.

Turning to `Cc1cc(C(C)Nc2ccccc2C(=O)O)c2cc(-c3cccc4cn(C)nc34)n(C)c(=O)c2c1` (stereo not shown) [Example 22, 2-((1-(2,7-dimethyl-3-(2-methyl-2H-indazol-7-yl)-1-oxo-1,2-dihydroisoquinolin-5-yl)ethyl)amino)benzoic acid], the IC50 was 52300 nM in assay [1], 1750 nM in assay [2], more than 10000 nM in assay [3] and more than 10000 nM in assay [4]. Besides, the “Selectivity: SK-BR-3/T-47D (p-AKT)” value in assay [2] is given as more than 5.7.

With `Cc1cc(C(C)Nc2ccccc2C(=O)O)c2cc(-c3ccc(-c4cnn(C)c4)cc3)n(C)c(=O)c2c1` (stereo not shown) [Example 23, 2-((1-(2,7-dimethyl-3-(4-(1-methyl-1H-pyrazol-4-yl)phenyl)-1-oxo-1,2-dihydroisoquinolin-5-yl)ethyl)amino)benzoic acid], the IC50 worked out at 2030 nM in assay [1], 103 nM in assay [2], 1700 nM in assay [3] and 147 nM in assay [4]. Further, in assay [2], the “Selectivity: SK-BR-3/T-47D (p-AKT)” value worked out at 16.6. The “Selectivity: SK-BR-3/T-47D (cell proliferation)” value in assay [4] is more than 68.

With `Cc1cc(C(C)Nc2ccccc2C(=O)O)c2cc(NC(=O)c3ccccc3)n(C)c(=O)c2c1` (stereo not shown) [Example 24, 2-((1-(3-benzamido-2,7-dimethyl-1-oxo-1,2-dihydroisoquinolin-5-yl)ethyl)amino)benzoic acid], the IC50 was 39200 nM in assay [1], 3140 nM in assay [2], more than 10000 nM in assay [3] and 9340 nM in assay [4]. Also, the “Selectivity: SK-BR-3/T-47D (p-AKT)” value in assay [2] is recorded as more than 3.1. Further, the “Selectivity: SK-BR-3/T-47D (cell proliferation)” value in assay [4] is on record as more than 1.07.

`CC(Nc1ccccc1C(=O)O)c1cccn2c(=O)cc(-c3ccccc3)cc12` (stereo not shown) [Example 25, 2-((1-(4-oxo-2-phenyl-4H-quinolizin-9-yl)ethyl)amino)benzoic acid]: the IC50 in assay [1] was 23800 nM; in assay [2], 299 nM; in assay [3], more than 10000 nM; in assay [4], more than 10000 nM. Also, in assay [2], the “Selectivity: SK-BR-3/T-47D (p-AKT)” value is recorded as more than 33.4.

One may read the IC50 as the concentration needed to halve the response being measured.
